Experimental findings from ChEMBL document CHEMBL1201862, “PubChem BioAssay data set” (2004) are described below.

Assay [1] can be described thus: Luminescence Cell-Based Dose Response HTS to Identify Inhibitors of 5'UTR Stem-Loop Driven Prion Protein mRNA Translation in H4 Neuroglioblastoma Cells. [Related pubchem assays: 1827 (Project Summary), 1813 (Primary HTS)]. Type of assay: functional.
The subject of assay [2] is Streptococcus sp. 'group A'. Description: Streptococcus pyogenes SK(-)GAS viability under kanamycin – luminescence, BacTiterGlo, confirmation, counter-screen for streptokinase expression inhibitor project, dose response (AID 1900). Type of assay: functional, organism-based. A general note: Counterscreens check selectivity or assay interference.
In assay [3] the test system is Streptococcus. The assay can be described thus: GAS UMAA2166 growth inhibition – luminescence, BacTiterGlo, counter-screen for streptokinase expression inhibitor project, dose response (AID 1915).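 Also: potency for reduction of bacterial viability or growth.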 Type of assay: functional, organism-based.
Assay [4] deals with T1, Heat shock factor protein 1 (Mus musculus, UniProt P38532).
T1 sequence (P38532 whole entry): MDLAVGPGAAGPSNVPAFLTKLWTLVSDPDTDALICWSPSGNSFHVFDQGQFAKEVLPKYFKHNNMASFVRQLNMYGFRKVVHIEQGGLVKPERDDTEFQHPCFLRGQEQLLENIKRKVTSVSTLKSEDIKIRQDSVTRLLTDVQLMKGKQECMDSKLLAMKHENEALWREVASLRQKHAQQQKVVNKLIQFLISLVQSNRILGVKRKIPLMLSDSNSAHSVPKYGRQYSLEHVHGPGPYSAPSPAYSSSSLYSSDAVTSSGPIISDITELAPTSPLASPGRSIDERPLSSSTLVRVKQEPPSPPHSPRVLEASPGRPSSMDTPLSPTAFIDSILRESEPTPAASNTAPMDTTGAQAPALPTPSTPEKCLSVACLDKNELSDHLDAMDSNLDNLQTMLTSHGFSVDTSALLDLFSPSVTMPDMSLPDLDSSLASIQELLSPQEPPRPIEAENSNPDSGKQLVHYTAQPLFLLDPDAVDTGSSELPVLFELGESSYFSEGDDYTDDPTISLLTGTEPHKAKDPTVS
The assay can be described thus: enhancement of HSF1-driven luciferase signal – cell-based, NIH3T3, luminescence, dose retest, confirmation (AID 435004).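 Also: stress induced by proteasome inhibitor MG132 added 30 min after compound; luciferase reporter driven by HSF1 response element in NIH3T3 cells; actives raise luminescence as potentiators of the MG132 stress response.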 Type of assay: functional.

The target in assay [5] is T2, Streptokinase A (Streptococcus pyogenes serotype M1, UniProt P10520).
T2 sequence (P10520 whole entry): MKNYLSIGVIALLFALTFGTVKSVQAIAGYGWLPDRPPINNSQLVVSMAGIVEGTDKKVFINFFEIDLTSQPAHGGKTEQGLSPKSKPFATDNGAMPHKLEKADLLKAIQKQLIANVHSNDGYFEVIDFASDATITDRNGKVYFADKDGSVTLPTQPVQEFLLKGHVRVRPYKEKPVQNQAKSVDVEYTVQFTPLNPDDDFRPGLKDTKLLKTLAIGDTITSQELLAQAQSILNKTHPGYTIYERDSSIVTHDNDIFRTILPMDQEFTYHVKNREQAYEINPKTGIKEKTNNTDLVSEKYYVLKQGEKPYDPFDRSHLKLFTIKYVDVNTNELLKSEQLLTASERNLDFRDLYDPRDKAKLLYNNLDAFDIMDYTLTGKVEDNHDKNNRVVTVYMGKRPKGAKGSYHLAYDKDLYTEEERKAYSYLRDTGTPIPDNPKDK
Description: viability-normalized secreted streptokinase activity reduction – plasminogen activation absorbance, OD405, dose response (AID 1914).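 Also: secreted streptokinase activity via plasminogen activation per viability signal from cell pellet.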 The class given is functional, Streptococcus pyogenes M1 GAS.

Assay [6] concerns the target Heat shock protein HSP 90-alpha (Homo sapiens, UniProt P07900). The class given is functional, organism-based.
Assay [7] relates to Vero. Description: viability of Vero cells under compound – cytotoxicity control for flavivirus capping enzyme inhibitors (AID 588742). The class given is functional. Particulars: Chlorocebus sabaeus.
The target in assay [8] is Ephrin type-A receptor 4 (Mus musculus, UniProt Q03137). The assay can be described thus: EphA4 ligand-binding antagonists – biochemical, colorimetric, mouse EphA4, primary screen (AID 689). Type of assay: functional.
Ephrin type-A receptor 4, sequence (Q03137 whole entry): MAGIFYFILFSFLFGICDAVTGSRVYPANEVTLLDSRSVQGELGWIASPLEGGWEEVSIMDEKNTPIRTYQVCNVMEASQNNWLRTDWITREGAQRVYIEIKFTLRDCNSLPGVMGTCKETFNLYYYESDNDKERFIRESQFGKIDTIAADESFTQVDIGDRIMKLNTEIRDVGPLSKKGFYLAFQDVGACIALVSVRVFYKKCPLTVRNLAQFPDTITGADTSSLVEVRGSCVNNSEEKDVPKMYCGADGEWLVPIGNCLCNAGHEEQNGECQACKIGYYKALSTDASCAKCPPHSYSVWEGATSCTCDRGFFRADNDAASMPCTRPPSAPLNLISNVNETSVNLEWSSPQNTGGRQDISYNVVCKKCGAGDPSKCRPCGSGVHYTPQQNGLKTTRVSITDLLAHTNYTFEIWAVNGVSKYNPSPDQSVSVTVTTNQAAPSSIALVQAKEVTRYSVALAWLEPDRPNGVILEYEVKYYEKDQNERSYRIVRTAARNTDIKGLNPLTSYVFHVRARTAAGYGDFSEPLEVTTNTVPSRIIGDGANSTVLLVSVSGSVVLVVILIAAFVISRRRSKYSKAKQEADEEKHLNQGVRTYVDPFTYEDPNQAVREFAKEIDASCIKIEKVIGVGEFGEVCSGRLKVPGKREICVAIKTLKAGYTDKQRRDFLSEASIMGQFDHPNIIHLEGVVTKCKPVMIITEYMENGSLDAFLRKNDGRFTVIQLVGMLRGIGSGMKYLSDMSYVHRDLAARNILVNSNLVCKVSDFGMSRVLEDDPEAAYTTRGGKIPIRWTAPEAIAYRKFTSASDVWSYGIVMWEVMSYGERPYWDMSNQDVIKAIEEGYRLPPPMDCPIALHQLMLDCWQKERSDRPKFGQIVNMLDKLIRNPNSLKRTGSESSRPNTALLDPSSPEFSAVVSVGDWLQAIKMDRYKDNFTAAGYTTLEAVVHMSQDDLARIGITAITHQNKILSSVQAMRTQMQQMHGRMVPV
The nature of assay [9]: IC50 of Artemis nuclease activity blockers – biochemical, fluorescence intensity, dose response (AID 720701).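 Also: Artemis endonuclease enzyme.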 Type of assay: functional.
Assay [10] in a line: alpha-synuclein stem-loop luciferase translation blockers – H4 neuroglioma cells, luminescence, confirmation (AID 1988). The class given is functional, cell-based.
The nature of assay [11]: luciferase reporter signal suppression in cells – H4 neuroglioma cells, luminescence, dose response (AID 1990). The class given is functional, cell-based. Background: A reporter such as luciferase makes a cellular process visible.
The target in assay [12] is Transthyretin (Homo sapiens, UniProt P02766). The assay can be described thus: Luminescence-based cell-based high throughput dose response assay to identify activators of Transthyretin (TTR) transcription. Type of assay: functional.
In assay [13] the target is T3, Aminopeptidase N (Plasmodium falciparum FcB1/Columbia, UniProt O96935).
T3 sequence (O96935 whole entry): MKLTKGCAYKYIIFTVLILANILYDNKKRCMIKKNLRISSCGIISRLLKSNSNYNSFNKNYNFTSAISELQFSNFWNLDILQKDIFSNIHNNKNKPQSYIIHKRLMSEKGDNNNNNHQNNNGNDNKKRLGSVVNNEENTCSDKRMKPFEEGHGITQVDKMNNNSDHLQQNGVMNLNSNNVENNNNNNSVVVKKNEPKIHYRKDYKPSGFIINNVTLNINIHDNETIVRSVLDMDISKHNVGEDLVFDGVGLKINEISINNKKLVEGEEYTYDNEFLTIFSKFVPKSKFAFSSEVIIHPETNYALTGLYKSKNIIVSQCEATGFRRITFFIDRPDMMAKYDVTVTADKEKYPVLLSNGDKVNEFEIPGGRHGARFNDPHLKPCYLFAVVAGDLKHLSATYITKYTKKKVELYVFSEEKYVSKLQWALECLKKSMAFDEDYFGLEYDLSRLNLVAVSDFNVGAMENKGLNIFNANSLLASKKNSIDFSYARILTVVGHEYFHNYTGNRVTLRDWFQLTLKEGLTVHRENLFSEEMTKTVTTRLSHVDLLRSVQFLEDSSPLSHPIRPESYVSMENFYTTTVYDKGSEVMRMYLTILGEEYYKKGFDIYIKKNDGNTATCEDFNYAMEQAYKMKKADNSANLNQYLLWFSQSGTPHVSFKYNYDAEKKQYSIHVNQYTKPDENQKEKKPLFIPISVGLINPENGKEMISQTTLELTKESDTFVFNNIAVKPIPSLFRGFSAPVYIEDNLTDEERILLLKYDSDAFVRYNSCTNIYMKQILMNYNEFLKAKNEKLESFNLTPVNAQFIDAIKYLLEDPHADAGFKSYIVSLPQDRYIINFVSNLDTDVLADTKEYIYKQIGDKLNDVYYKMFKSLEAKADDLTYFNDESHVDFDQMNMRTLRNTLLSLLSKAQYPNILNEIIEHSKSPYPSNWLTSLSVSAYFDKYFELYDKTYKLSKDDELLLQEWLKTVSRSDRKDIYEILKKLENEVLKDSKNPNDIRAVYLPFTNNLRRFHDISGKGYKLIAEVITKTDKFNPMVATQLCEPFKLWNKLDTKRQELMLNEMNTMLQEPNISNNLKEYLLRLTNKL
The assay can be described thus: malaria alanyl aminopeptidase activity blockers – biochemical, fluorogenic H-Leu-NHMec substrate, 1536-well (AID 1445). Details: species or system Plasmodium falciparum 3D7, 3D7.

Assay [14] can be described thus: cells. Type of assay: functional.
Assay [15] has as its target Kallikrein-7 (Homo sapiens, UniProt P49862). Description: Fluorescence Intensity-based biochemical primary high throughput dose response assay to identify activators of kallikrein-7 (K7) zymogen.
The nature of assay [16]: viability loss in CEM21 cells – cell-based, plate reader, dry powder, cytotoxicity control, dose response (AID 687026). Type of assay: functional.
The nature of assay [17]: inhibition of Env-driven cell fusion – HIV entry, plate reader, dry powder, dose response (AID 687023). The class given is functional, cell-based.
The nature of assay [18]: viability loss in human Jurkat cells – cell-based, luminescence, cytotoxicity control for P. falciparum gametocyte viability project, dose response (AID 1117277).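 Also: potency reflects loss of cellular ATP meaning fewer viable cells.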 Type of assay: functional.
The nature of assay [19]: viability inhibitors of stage V gametocytes – luminescence, dose response (AID 1117278).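 Also: gametocytes exposed to compound for 24 hours.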 Type of assay: functional, cell-based.
The nature of assay [20]: Potency on glucagon-like peptide 1 release, dose-response in NCI-H716 cell line, half maximal inhibitory concentration (AID 1117344). Type of assay: functional, cell-based.
Assay [21] can be described thus: glucagon-like peptide-1 release potency in STC-1, concentration-response, half-maximal inhibitory concentration in the STC-1 line (AID 1117345). Type of assay: functional, cell-based.
Assay [22] can be described thus: OV-90 cell viability loss – plate reader, dry powder, SA8, PAX8 inhibitor project, dose response (AID 743149). The class given is functional, cell-based.
The nature of assay [23]: PAX5 cellular inhibition readout – cell-based, plate reader, dry powder samples, selectivity assay for PAX8 inhibitor project, dose response (AID 743047).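 Also: HEK293 cells carrying a Pax5 driven CD19 promoter luciferase reporter; potency of inhibitors that lower reporter luminescence.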 Type of assay: functional.
A short description of assay [24]: cytotoxicity in HEK293 background cells – cell-based, dry powder, set 2, counter-screen for EBV LMP1 inhibitor project, dose response (AID 624374). The class given is functional.
The nature of assay [25]: OVCAR-3 cell viability loss – plate reader, dry powder samples, PAX8 inhibitor project, dose response (AID 743044). Type of assay: functional, cell-based.
The target of assay [26] is Paired box protein Pax-8 (Homo sapiens, UniProt Q06710). Description: PAX8 transcriptional activity inhibition in RMG-I – RMG-I cells, luciferase, cherry-pick, dose response (AID 687027).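 Also: luciferase reporter driven by Pax8 target thyroperoxidase promoter measured by SteadyGlo luminescence.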 Type of assay: functional, cell-based.
Paired box protein Pax-8, sequence (Q06710 whole entry): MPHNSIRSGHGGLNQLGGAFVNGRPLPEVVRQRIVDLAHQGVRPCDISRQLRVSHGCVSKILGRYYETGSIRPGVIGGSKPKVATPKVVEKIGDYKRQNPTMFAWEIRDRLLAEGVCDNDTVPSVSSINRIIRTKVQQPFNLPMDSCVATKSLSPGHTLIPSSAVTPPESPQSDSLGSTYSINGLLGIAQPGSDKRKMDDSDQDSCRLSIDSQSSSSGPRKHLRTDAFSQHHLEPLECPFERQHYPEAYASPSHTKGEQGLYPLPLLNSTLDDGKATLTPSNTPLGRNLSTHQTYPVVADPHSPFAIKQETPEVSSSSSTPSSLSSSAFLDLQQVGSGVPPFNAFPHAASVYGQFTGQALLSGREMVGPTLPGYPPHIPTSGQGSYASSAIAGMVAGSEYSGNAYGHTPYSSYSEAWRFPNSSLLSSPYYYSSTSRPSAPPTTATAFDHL
Assay [27] can be described thus: COV362 cell viability loss – plate reader, dry powder, SA12, cytotoxicity control for PAX8 inhibitor project, dose response (AID 743144). The class given is functional, cell-based.
A short description of assay [28]: inhibitors acting on PAX2 in cells – cell-based, plate reader, dry powder samples, selectivity assay for PAX8 inhibitor project, dose response (AID 743048).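 Also: HEK293 cells carrying a WT1 promoter luciferase reporter driven by expressed Pax2; potency is for inhibition of Pax2 driven reporter signal.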 The class given is functional.
The nature of assay [29]: COV434 cell viability loss – plate reader, dry powder, SA7, cytotoxicity control for PAX8 inhibitor project, dose response (AID 743145). Type of assay: functional, cell-based.
Assay [30] in a line: PAX8-dependent cell viability loss – plate reader, dry powder, dose response (AID 743049). Type of assay: functional, cell-based.

The structures appear in SMILES notation. Several values for one entry are separate records, joined by “and”; a condition that tells them apart may be missing. Identical values can stand only once. Activity calls are given as the source filed them.

Kallikrein-7, sequence (P49862 whole entry): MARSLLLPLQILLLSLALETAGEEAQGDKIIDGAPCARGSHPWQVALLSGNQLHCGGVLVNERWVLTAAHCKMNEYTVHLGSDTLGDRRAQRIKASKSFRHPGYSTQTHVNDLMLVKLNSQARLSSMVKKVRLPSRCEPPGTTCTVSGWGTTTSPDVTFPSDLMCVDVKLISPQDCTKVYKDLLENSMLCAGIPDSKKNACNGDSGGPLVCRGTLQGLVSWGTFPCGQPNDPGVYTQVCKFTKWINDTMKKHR

In general, EC50 refers to the concentration giving half of the maximal effect. The AC50 is the concentration giving half of the maximal activity seen. As usually defined, the CC50 is the concentration at which the toxic effect on the cells reaches its halfway point. What is called IC50 is the midpoint of a concentration-inhibition curve. In the case of `O=C(/C=C/c1ccccc1)c1cc(Br)ccc(=O)c1O`, the EC50 was > 120 µM (not active) in assay [1]; 1.95 µM (active) in assay [2]; 7.42 µM (active) in assay [3]; 15.9 µM (active) in [4]; > 150 µM (not active) in [5]; > 120 µM (not active) in [10]. In assay [11], the EC50 is 11.6 µM (active). Moreover, the AC50 in [6] is 3.01 µM (active). The CC50 in assay [7] was 5.71 µM (active). The IC50 in assay [8] is 17.3 µM (active); in assay [9] it was 19.1 µM (active).
Regarding `Cn1ncc(Br)c1C(=O)N1CCc2ccccc21`, in assay [12], the EC50 is > 167 µM (inactive).
Consider `O=C(Oc1c(-c2ccco2)oc2ccccc2c1=O)c1cccnc1`, for which the IC50 in [13] is 129 µM (active); in assay [14], 20.5 µM (active). In addition, the EC50 in [15] is 19.6 µM (inactive).
With `COc1ccc(S(=O)(=O)NCc2ccncc2)cc1OC`, the AC50 in assay [16] is > 70 µM (inactive); in assay [17] it was 25.4 µM (active) and 32 µM (active).
For the compound `c1ccc(CNC2=NCCS2)cc1`, the IC50 in assay [18] was > 83.2 µM (inactive); in assay [19], > 109 µM (inactive).
Consider `Cc1cc(N)c2cc(NC(=O)Nc3ccc4nc(C)cc(N)c4c3)ccc2n1`, for which the IC50 in assay [20] is 34.2 µM (inactive); in assay [21], > 40 µM (inactive).
For the compound `C[C@@H]1CN([C@@H](C)CO)S(=O)(=O)c2ccc(C#Cc3ccncc3)cc2O[C@H]1CN(C)C(=O)Nc1ccc2c(c1)OCO2`, the AC50 in [22] was 8.27 µM (active); in assay [23], 31.1 µM (active); in assay [25], 19.1 µM (active); in assay [26], 2.44 µM (active); in assay [27], 0.0878 nM (active); in assay [28], 22.7 µM (active). Also, the values for the AC50 in assay [29] and in assay [30] were 0.179 µM (active) and 13 µM (active), respectively. This compound displayed an AbsAC35 in assay [24] of 39.06 µM.
